US20050070006A1 (priority 2001, published 2005)
≈ marks a conversion by molar mass, not a printed value. Like-named read-outs stand apart in the source and are kept apart here.

Assays:
[1] = system: strain 4S (frameshift mutation); details: Bromocresol Red colour change
[2] = system: strain 6S (frameshift mutation); experiment: Long-term mutation test (selection phase 16 hours), luminometric β-galactosidase reporter; details: selection 16 hours
[3] = antibiotic activity; Olivia et al. 1992; cited from earlier work
[4] = system: strain 4S (frameshift mutation); experiment: Long-term mutation test (selection phase 16 hours), luminometric β-galactosidase reporter; details: selection 16 hours

Compound: COc1ccc2nc3cc(Cl)ccc3c(NCCCNCCCl)c2c1.Cl.Cl [ICR-191, 2-Methoxy-6-chloro-9-(3-(2-chloro-ethyl)aminopropylamino)acridine, dihydrochloride]
- % of positive wells ([1]; 0.03 μg/ml): 0%
- Mutation induction (factor) ([1]; 0.03 μg/ml): 0 factor
- % of positive wells ([1]; 0.06 μg/ml): 6.3%
- Mutation induction (factor) ([1]; 0.06 μg/ml): 2 factor
- % of positive wells ([1]; 0.12 μg/ml): 12.5%
- Mutation induction (factor) ([1]; 0.12 μg/ml): 4 factor
- % of positive wells ([1]; 0.25 μg/ml): 25%
- Mutation induction (factor) ([1]; 0.25 μg/ml): 8.1 factor
- % of positive wells ([1]; 0.5 μg/ml): 37.5%
- Mutation induction (factor) ([1]; 0.5 μg/ml): 12.1 factor
- % of positive wells ([1]; 1 μg/ml): 75%
- Mutation induction (factor) ([1]; 1 μg/ml): 24.2 factor
- Mutation induction (factor) ([2]; 0.016 μg/ml): 28 factor
- Relative luminescence units (rlu) ([2]; 0.016 μg/ml): 151340 rlu
- Mutation induction (factor) ([2]; 0.031 μg/ml): 57 factor
- Relative luminescence units (rlu) ([2]; 0.031 μg/ml): 307828 rlu
- Mutation induction (factor) ([2]; 0.0625 μg/ml): 86 factor
- Relative luminescence units (rlu) ([2]; 0.0625 μg/ml): 466003 rlu
- Mutation induction (factor) ([2]; 0.125 μg/ml): 127 factor
- Relative luminescence units (rlu) ([2]; 0.125 μg/ml): 685471 rlu
- Mutation induction (factor) ([2]; 0.25 μg/ml): 162 factor
- Relative luminescence units (rlu) ([2]; 0.25 μg/ml): 880208 rlu
- Mutation induction (factor) ([2]; 0.5 μg/ml): 235 factor
- Relative luminescence units (rlu) ([2]; 0.5 μg/ml): 1274327 rlu
- Mutation induction (factor) ([2]; 1 μg/ml): 264 factor
- Relative luminescence units (rlu) ([2]; 1 μg/ml): 1432620 rlu

Compound: CN(C)[C@@H]1C(=O)C(C(N)=O)=C(O)[C@@]2(O)C(=O)C3=C(O)c4c(O)cccc4[C@@](C)(O)[C@H]3C[C@@H]12 [tetracyclin]
- MIC (minimum inhibition concentration) value [3]: 0.5 µg/mL (≈ 1.13 µM)

Compound: Nitrofluorene
- Mutation induction (factor) ([4]; 0.031 μg/ml): 39 factor
- Relative luminescence units (rlu) ([4]; 0.031 μg/ml): 210703 rlu
- Mutation induction (factor) ([4]; 0.0625 μg/ml): 90 factor
- Relative luminescence units (rlu) ([4]; 0.0625 μg/ml): 480532 rlu
- Mutation induction (factor) ([4]; 0.125 μg/ml): 169 factor
- Relative luminescence units (rlu) ([4]; 0.125 μg/ml): 900022 rlu
- Mutation induction (factor) ([4]; 0.25 μg/ml): 321 factor
- Relative luminescence units (rlu) ([4]; 0.25 μg/ml): 1713083 rlu
- Mutation induction (factor) ([4]; 0.5 μg/ml): 682 factor
- Relative luminescence units (rlu) ([4]; 0.5 μg/ml): 3643737 rlu
- Mutation induction (factor) ([4]; 1 μg/ml): 630 factor
- Relative luminescence units (rlu) ([4]; 1 μg/ml): 3360982 rlu

Compound: Nitropyrene
- Mutation induction (factor) ([4]; 0.031 μg/ml): 0.8 factor
- Relative luminescence units (rlu) ([4]; 0.031 μg/ml): 4125 rlu
- Mutation induction (factor) ([4]; 0.0625 μg/ml): 19.8 factor
- Relative luminescence units (rlu) ([4]; 0.0625 μg/ml): 105949 rlu
- Mutation induction (factor) ([4]; 0.125 μg/ml): 41 factor
- Relative luminescence units (rlu) ([4]; 0.125 μg/ml): 219636 rlu
- Mutation induction (factor) ([4]; 0.25 μg/ml): 65 factor
- Relative luminescence units (rlu) ([4]; 0.25 μg/ml): 348410 rlu
- Mutation induction (factor) ([4]; 0.5 μg/ml): 177 factor
- Relative luminescence units (rlu) ([4]; 0.5 μg/ml): 950853 rlu
- Mutation induction (factor) ([4]; 1 μg/ml): 103 factor
- Relative luminescence units (rlu) ([4]; 1 μg/ml): 552390 rlu
